The text below walks through data of patent US20220388964A1 (HiberCell, Inc., priority 2019, published 2022).

Some results are limits rather than exact numbers.

For this assay, the target named is GCN2 (Homo sapiens, UniProt Q9P2K8). The assay is described as follows: TR-FRET biochemical assay for inhibition of GCN2 (Example 106, for Example 1-4BB). A general note: TR-FRET usually uses a lanthanide donor and a delayed reading to cut background.
GCN2, sequence (Q9P2K8 whole entry): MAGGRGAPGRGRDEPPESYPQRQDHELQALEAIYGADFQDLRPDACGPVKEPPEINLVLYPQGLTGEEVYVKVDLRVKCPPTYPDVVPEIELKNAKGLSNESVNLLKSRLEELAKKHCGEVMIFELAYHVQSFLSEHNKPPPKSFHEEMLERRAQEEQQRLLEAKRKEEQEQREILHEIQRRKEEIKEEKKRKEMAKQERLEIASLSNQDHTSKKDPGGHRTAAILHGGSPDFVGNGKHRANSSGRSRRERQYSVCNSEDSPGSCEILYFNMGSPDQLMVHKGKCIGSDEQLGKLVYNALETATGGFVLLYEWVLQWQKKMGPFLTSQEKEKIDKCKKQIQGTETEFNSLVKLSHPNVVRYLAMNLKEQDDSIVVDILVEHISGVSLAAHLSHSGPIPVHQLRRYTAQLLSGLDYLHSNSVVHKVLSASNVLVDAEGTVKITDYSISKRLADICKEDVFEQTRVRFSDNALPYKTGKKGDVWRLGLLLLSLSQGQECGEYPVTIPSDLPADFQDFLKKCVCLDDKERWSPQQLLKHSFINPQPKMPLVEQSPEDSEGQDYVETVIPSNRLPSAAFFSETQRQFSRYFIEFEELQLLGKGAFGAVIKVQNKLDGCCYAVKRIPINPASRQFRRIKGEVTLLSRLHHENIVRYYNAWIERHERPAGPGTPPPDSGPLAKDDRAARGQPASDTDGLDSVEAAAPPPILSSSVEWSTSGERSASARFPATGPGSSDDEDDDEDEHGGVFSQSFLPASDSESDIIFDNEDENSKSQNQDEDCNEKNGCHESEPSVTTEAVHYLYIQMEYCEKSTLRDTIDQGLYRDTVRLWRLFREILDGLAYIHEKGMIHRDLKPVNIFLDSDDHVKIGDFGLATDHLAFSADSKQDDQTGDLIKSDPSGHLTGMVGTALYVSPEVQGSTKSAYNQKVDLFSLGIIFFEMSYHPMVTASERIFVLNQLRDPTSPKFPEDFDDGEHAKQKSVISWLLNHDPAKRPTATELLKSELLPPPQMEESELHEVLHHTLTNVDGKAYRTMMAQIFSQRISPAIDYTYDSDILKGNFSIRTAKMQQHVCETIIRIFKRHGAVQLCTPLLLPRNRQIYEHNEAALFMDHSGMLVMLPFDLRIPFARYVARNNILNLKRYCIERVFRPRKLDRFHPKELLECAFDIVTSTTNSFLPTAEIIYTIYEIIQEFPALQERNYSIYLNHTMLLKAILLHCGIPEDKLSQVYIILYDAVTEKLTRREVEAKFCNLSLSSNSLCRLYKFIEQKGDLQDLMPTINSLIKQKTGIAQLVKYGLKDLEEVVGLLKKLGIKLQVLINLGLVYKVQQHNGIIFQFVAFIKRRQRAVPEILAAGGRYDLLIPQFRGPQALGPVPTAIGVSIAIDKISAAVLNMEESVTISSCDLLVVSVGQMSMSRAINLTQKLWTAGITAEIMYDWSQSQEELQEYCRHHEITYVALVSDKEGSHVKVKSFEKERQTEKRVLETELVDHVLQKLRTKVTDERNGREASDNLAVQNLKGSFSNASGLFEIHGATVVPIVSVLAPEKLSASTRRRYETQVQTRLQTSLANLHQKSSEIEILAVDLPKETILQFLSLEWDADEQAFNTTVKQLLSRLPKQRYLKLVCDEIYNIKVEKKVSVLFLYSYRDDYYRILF

For `COc1ncc(F)cc1S(=O)(=O)Nc1ccc(F)c(-c2ccc3c(C(=O)NCCCN(C)C)n[nH]c3c2F)c1F` [Example 3U, 6-(2,6-difluoro-3-((5-fluoro-2-methoxypyridine)-3-sulfonamido)phenyl)-N-(3-(dimethylamino)propyl)-7-fluoro-1H-indazole-3-carboxamide], for the setting “Table 9”, the half-maximal inhibitory concentration (IC50) (commonly the midpoint of a concentration-inhibition curve) is less than 500 nM.

The compound `COc1ncc(F)cc1S(=O)(=O)Nc1ccc(F)c(-c2ccc3c(C(=O)NCCC(N)=O)n[nH]c3c2F)c1F` [Example 3AL, N-(3-amino-3-oxopropyl)-6-(2,6-difluoro-3-((5-fluoro-2-methoxypyridine)-3-sulfonamido)phenyl)-7-fluoro-1H-indazole-3-carboxamide] yielded an IC50 (Table 9) of less than 500 nM.

As for `Cn1cccc(S(=O)(=O)Nc2ccc(F)c(-c3ccc4c(-c5ncc[nH]5)n[nH]c4c3F)c2F)c1=O` [Example 2AJ, N-(2,4-difluoro-3-(7-fluoro-3-(1H-imidazol-2-yl)-1H-indazol-6-yl)phenyl)-1-methyl-2-oxo-1,2-dihydro-pyridine-3-sulfonamide], under “Table 8”, the IC50 lay within 2500 to 10000 nM.

In the case of `Cn1ccnc1S(=O)(=O)Nc1ccc(F)c(-c2ccc3c(-c4ncc[nH]4)n[nH]c3c2F)c1F` [Example 2S, N-(2,4-difluoro-3-(7-fluoro-3-(1H-imidazol-2-yl)-1H-indazol-6-yl)phenyl)-1-methyl-1H-imidazole-2-sulfonamide], under “Table 8”, the IC50 lay within 2500 to 10000 nM.

`O=S(=O)(Nc1ccc(F)c(-c2ccc3c(-c4ncc[nH]4)n[nH]c3c2F)c1F)c1ccccc1` [Example 2BV, N-(2,4-difluoro-3-(7-fluoro-3-(1H-imidazol-2-yl)-1H-indazol-6-yl)phenyl)benzene-sulfonamide] had an IC50 (Table 8) of 500 to 2500 nM.

Compound `O=S(=O)(Nc1ccc(F)c(-c2ccc3c(-c4ncc[nH]4)n[nH]c3c2F)c1F)c1ccc(F)c(F)c1` [Example 2BO, N-(2,4-difluoro-3-(7-fluoro-3-(1H-imidazol-2-yl)-1H-indazol-6-yl)phenyl)-3,4-difluorobenzenesulfonamide] yielded an IC50 (Table 8) of 500 to 2500 nM.

Turning to `Cc1cccc(F)c1S(=O)(=O)Nc1ccc(F)c(-c2ccc3c(-c4ncc[nH]4)n[nH]c3c2F)c1F` [Example 2AT, N-(2,4-difluoro-3-(7-fluoro-3-(1H-imidazol-2-yl)-1H-indazol-6-yl)phenyl)-2-fluoro-6-methylbenzene-sulfonamide], for the setting “Table 8”, the IC50 was less than 500 nM.

Turning to `COc1ncc(Cl)cc1S(=O)(=O)Nc1ccc(F)c(-c2ccc3c(C(=O)NC[C@@H]4CCCN4C)n[nH]c3c2F)c1F` [Example 3E, 6-(3-((5-chloro-2-methoxy-pyridine)-3-sulfonamido)-2,6-difluorophenyl)-7-fluoro-N-(((S)-1-methylpyrrolidin-2-yl)methyl)-1H-indazole-3-carboxamide], the IC50 (Table 9) is less than 500 nM.

`Cc1c(O)cccc1S(=O)(=O)Nc1ccc(F)c(-c2ccc3c(-c4ncc[nH]4)n[nH]c3c2F)c1F` [Example 2AU, N-(2,4-difluoro-3-(7-fluoro-3-(1H-imidazol-2-yl)-1H-indazol-6-yl)phenyl)-3-hydroxy-2-methylbenzene-sulfonamide]: under “Table 8”, the IC50 lay in the range of 500 to 2500 nM.

On to `COc1nscc1S(=O)(=O)Nc1cc(F)cc(-c2ccc3c(-c4ncc[nH]4)n[nH]c3c2F)c1F` [Example 3BZ, N-(2,5-difluoro-3-(7-fluoro-3-(1H-imidazol-2-yl)-1H-indazol-6-yl)phenyl)-3-methoxyisothiazole-4-sulfonamide], for which the IC50 (Table 9) is less than 500 nM.

Compound `Cc1ncccc1S(=O)(=O)Nc1ncc(F)c(-c2ccc3c(-c4ncc[nH]4)n[nH]c3c2F)c1F` [Example 3L, N-(3,5-difluoro-4-(7-fluoro-3-(1H-imidazol-2-yl)-1H-indazol-6-yl)pyridin-2-yl)-2-methylpyridine-3-sulfonamide] had an IC50 (Table 9) greater than 10000 nM.

As for `COc1ncc(F)cc1S(=O)(=O)Nc1ccnc(-c2ccc3c(-c4ncc[nH]4)n[nH]c3c2F)c1C#N` [Example 29, N-(3-Cyano-2-(7-fluoro-3-(1H-imidazol-2-yl)-1H-indazol-6-yl)pyridin-4-yl)-5-fluoro-2-methoxypyridine-3-sulfonamide], where the note is “Table 9”, the IC50 was in the range of 2500 to 10000 nM.

On to `COc1ncc(F)cc1S(=O)(=O)Nc1ccc(F)c(-c2ccc3c(C(=O)Nc4ccc(=O)n(C)c4)n[nH]c3c2F)c1F` [Example 3BP, 6-(2,6-difluoro-3-((5-fluoro-2-methoxypyridine)-3-sulfonamido)phenyl)-7-fluoro-N-(1-methyl-6-oxo-1,6-dihydropyridin-3-yl)-1H-indazole-3-carboxamide], for which the IC50 (Table 9) is less than 500 nM.

On to `COc1ncc(F)cc1S(=O)(=O)Nc1ccc(F)c(-c2ccc3c(-c4n[nH]c(=O)[nH]4)n[nH]c3c2F)c1F` [Example 3CW, N-(2,4-difluoro-3-(7-fluoro-3-(5-oxo-4,5-dihydro-1H-1,2,4-triazol-3-yl)-1H-indazol-6-yl)phenyl)-5-fluoro-2-methoxypyridine-3-sulfonamide], for which, for the setting “Table 9”, the IC50 is less than 500 nM.

Where the note is “Table 9”, `Cc1ccc(F)cc1S(=O)(=O)Nc1ccc(F)c(-c2cc3[nH]ncc3cn2)c1F` [Example 4BB] yielded an IC50 of 500 to 2500 nM.

Consider `O=C(Nc1cnn(CCO)c1)c1n[nH]c2c(F)c(-c3c(F)ccc(NS(=O)(=O)c4cc(F)cc5c4CCC5O)c3F)ccc12` (stereo not shown) [Example 4AJ], for which, under “Table 9”, the IC50 was less than 500 nM.

With `Cc1ccccc1S(=O)(=O)Nc1ccc(F)c(-c2ccc3c(-c4ncc[nH]4)n[nH]c3c2F)c1F` [Example 2BR, N-(2,4-difluoro-3-(7-fluoro-3-(1H-imidazol-2-yl)-1H-indazol-6-yl)phenyl)-2-methylbenzenesulfonamide], the IC50 (Table 8) is less than 500 nM.

For the setting “Table 8”, `COc1ncc(Cl)cc1S(=O)(=O)Nc1cccc(-c2ccc3c(-c4ncc[nH]4)n[nH]c3c2F)c1C` [Example 2P, 5-chloro-N-(3-(7-fluoro-3-(1H-imidazol-2-yl)-1H-indazol-6-yl)-2-methylphenyl)-2-methoxypyridine-3-sulfonamide] displayed an IC50 of less than 500 nM.

With `COc1ncc(F)cc1S(=O)(=O)Nc1ccc(F)c(-c2ccc3c(-c4nc(C(O)CO)c[nH]4)n[nH]c3c2F)c1F` (stereo not shown) [Example 21, N-(3-(3-(4-(1,2-Dihydroxyethyl)-1H-imidazol-2-yl)-7-fluoro-1H-indazol-6-yl)-2,4-difluorophenyl)-5-fluoro-2-methoxypyridine-3-sulfonamide], under “Table 9”, the IC50 is less than 500 nM.

On to `O=S(=O)(Nc1ccc(F)c(-c2ccc3c(-c4ncc[nH]4)n[nH]c3c2F)c1F)c1cccnc1CO` [Example 2Q, N-(2,4-difluoro-3-(7-fluoro-3-(1H-imidazol-2-yl)-1H-indazol-6-yl)phenyl)-2-(hydroxyl-methyl)pyridine-3-sulfonamide], for which, under “Table 8”, the IC50 fell in the range of 500 to 2500 nM.

Turning to `COc1ncc(F)cc1S(=O)(=O)Nc1ccc(C#N)c(-c2ccc3c(C(N)=O)n[nH]c3c2F)c1F` [Example 3BR, 6-(6-cyano-2-fluoro-3-((5-fluoro-2-methoxypyridine)-3-sulfonamido)phenyl)-7-fluoro-1H-indazole-3-carboxamide], the IC50 (Table 9) is 500 to 2500 nM.

In the case of `COc1ncc(F)cc1S(=O)(=O)Nc1ccc(F)c(-c2ccc3c(C(=O)NC4CCNCC4)n[nH]c3c2F)c1F` [Example 3AU, 6-(2,6-difluoro-3-((5-fluoro-2-methoxypyridine)-3-sulfonamido)phenyl)-7-fluoro-N-(piperidin-4-yl)-1H-indazole-3-carboxamide], the IC50 (Table 9) fell in the range of 500 to 2500 nM.
